The nature of assay [1]: Antiproliferative activity against apoptosis sensitive human PC3 cells after 72 hrs by MTT assay. It counts as functional, cell-based. As to conditions: PC-3, 72 h. On the technique in general: Tetrazolium assays rely on reduction of a dye to a coloured formazan, in cell work by metabolically active cells.
Another assay concerns LoVo. In words: Antiproliferative activity against human LoVo cells after 72 hrs by MTT assay. It counts as functional, cell-based.
The next assay has as its system SK-MEL-28. Kind of assay: Antiproliferative activity against apoptosis resistant human SK-MEL-28 cells after 72 hrs by MTT assay. It counts as functional, cell-based. The note with it: SK-MEL-28, 72 h.
Another assay has as its system A549. Kind of assay: Antiproliferative activity against apoptosis resistant human A549 cells after 72 hrs by MTT assay. Format: functional, cell-based. As to conditions: A549, 72 h.
Assay [2] can be described thus: Antiproliferative activity against apoptosis resistant human U373 cells after 72 hrs by MTT assay. As to conditions: U373 MG. It counts as functional, cell-based, U-373MG ATCC.
The nature of assay [3]: Antiproliferative activity against apoptosis resistant human OE21 cells after 72 hrs by MTT assay. It counts as functional, cell-based. The note with it: OE21, 72 h.
Another assay has as its system MCF7. Kind of assay: Antiproliferative activity against apoptosis sensitive human MCF7 cells after 72 hrs by MTT assay. Format: functional, cell-based. The note with it: MCF7, 72 h.
The nature of assay [4]: Antiproliferative activity against apoptosis sensitive mouse B16F10 cells after 72 hrs by MTT assay. It counts as functional, cell-based. As to conditions: B16-F10, 72 h.
A short description of assay [5]: Antiproliferative activity against apoptosis sensitive human Hs683 cells after 72 hrs by MTT assay. It counts as functional, cell-based. The note with it: Hs 683, 72 h.

As usually defined, the IC50 is the point on the concentration scale where inhibition reaches its midpoint. Read a low IC50 as greater potency in that assay. As for `O=C1Nc2ccc(Br)cc2/C1=C1/Cc2ccccc2C1=O`, the half-inhibitory concentration (IC50) is more than 100 µM in assay [1]; 52.8 µM in the assay on LoVo; more than 100 µM in the assay on SK-MEL-28; more than 100 µM with A549; 41.4 µM in assay [2]; 56 µM in assay [3]. For the same compound, the IC50 in the assay on MCF7 came out at 65.2 µM; in assay [4], 69.1 µM; in assay [5] it was 47.3 µM.

`O=C1Nc2ccc(Br)cc2/C1=C1/Nc2ccccc2/C1=N\O` [INDIRUBIN 2]: the IC50 in assay [1] was determined as 6.8 µM; with LoVo, 6.6 µM; with SK-MEL-28, 17.3 µM; in the assay on A549, 7.2 µM; in assay [2], 8 µM; in assay [3], 3.6 µM. For the same compound, the IC50 amounted to 5.8 µM in the assay on MCF7, 0.5 µM in [4] and 8.4 µM in assay [5].

For the compound `O=C1Nc2c(Br)cccc2/C1=C1/Nc2ccccc2C1=O`, the IC50 is more than 100 µM in [1]; 32.3 µM in the assay with LoVo; more than 100 µM in the assay with SK-MEL-28; more than 100 µM in the assay with A549; 8.1 µM in assay [2]; 8.7 µM in [3]. For the same compound, the values for the IC50 (in the assay with MCF7; in [4]; in assay [5]) were 52.8 µM, 3.2 µM and 6.9 µM, respectively.

For `O=C1Nc2ccc(Br)cc2/C1=C1/Nc2ccccc2C1=O`, the IC50 in [1] was more than 100 µM; in the assay with LoVo, 12 µM; in the assay on SK-MEL-28 it was more than 100 µM; in the assay with A549, more than 100 µM; in assay [2], 8.6 µM; in [3], 3.8 µM. Moreover, the IC50 came to 37.3 µM in the assay with MCF7, 3.8 µM in assay [4] and 14.1 µM in assay [5].

For the compound `O=C1Nc2ccccc2/C1=C1/Nc2ccccc2C1=O` [INDIRUBIN], the IC50 is more than 100 µM in assay [1]; more than 100 µM in the assay with LoVo; more than 100 µM with SK-MEL-28; more than 100 µM in the assay on A549; more than 100 µM in [2]; 30.5 µM in assay [3]. Besides, the figures for the 50% inhibitory concentration (IC50) (with MCF7; in assay [4]; in [5]) were more than 100 µM, 0.2 µM and more than 100 µM, respectively.

As to `O=C1Nc2c(F)cccc2/C1=C1/Nc2ccccc2C1=O`, the IC50 in assay [1] is more than 100 µM; in the assay with LoVo, 42 µM; in the assay with SK-MEL-28, more than 100 µM; with A549, more than 100 µM; in assay [2] it was 45.8 µM; in assay [3] it was 29 µM. Moreover, the IC50 in the assay with MCF7 is 44.8 µM; in assay [4] it was 16.3 µM; in [5], 38.7 µM.

Regarding `O=C1NC(=O)/C(=C2/C(=O)Nc3ccccc32)N1`, the IC50 in assay [1] was 95.5 µM; in the assay on LoVo, 76.1 µM; in the assay with SK-MEL-28, more than 100 µM; in the assay on A549, 66.5 µM; in assay [2] it was more than 100 µM; in [3] it was 52.3 µM. Also, the IC50 in the assay on MCF7 stood at 94.6 µM; in [4], 73.3 µM; in assay [5], 84.7 µM.

Consider `O=C1NC(=S)N/C1=C1\C(=O)Nc2c(Br)cccc21`, for which the IC50 in [1] turned out to be 22.8 µM; in the assay on LoVo it was 37 µM; in the assay with SK-MEL-28, 11.7 µM; in the assay with A549 it was 3.8 µM; in assay [2], 4.7 µM; in assay [3], 20.2 µM. Further, the figures for the IC50 (in the assay with MCF7; in assay [4]; in assay [5]) were 51 µM, 5 µM and 40.8 µM, respectively.

With `O=C1NC(=S)S/C1=C1\C(=O)Nc2ccc(Br)cc21`, the half-inhibitory concentration (IC50) in assay [1] came to 44.3 µM; in the assay on LoVo, 52.1 µM; in the assay with SK-MEL-28 it was 53.5 µM; in the assay on A549, 36.2 µM; in assay [2], 41.7 µM; in assay [3], 62.5 µM. Moreover, the values for the IC50 (in the assay on MCF7; in [4]; in assay [5]) were 82.9 µM, 0.1 µM and 93.6 µM, respectively.

For `CC1(C)CCC2=C(O1)c1ccccc1C(=O)C2=O` [LAPACHONE], the IC50 in [1] is less than 0.01 µM; in the assay with LoVo, 0.3 µM; with SK-MEL-28 it was 0.6 µM; with A549, 0.8 µM; in assay [2] it was 0.4 µM; in assay [3] it was 0.6 µM. Further, the IC50 worked out at 0.5 µM in the assay with MCF7, 0.3 µM in assay [4] and 0.4 µM in assay [5].

In the case of `O=C1Nc2ccccc2/C1=C1/Oc2ccccc2C1=O`, the IC50 was determined as 36.1 µM in assay [1]; 4.1 µM with LoVo; 23.8 µM in the assay with SK-MEL-28; 23.3 µM in the assay with A549; 27.7 µM in assay [2]; 25.9 µM in assay [3]. Besides, the IC50 is 0.3 µM in the assay with MCF7, less than 0.01 µM in assay [4] and 25.7 µM in assay [5].

Regarding `O=C1NC(=S)N/C1=C1\C(=O)Nc2ccccc21`, the IC50 in assay [1] was 75.5 µM; in the assay with LoVo, 60.2 µM; with SK-MEL-28 it was 62.9 µM; in the assay with A549, 45.8 µM; in [2], 51.9 µM; in [3], 38.7 µM. Moreover, the IC50 came out at 87.8 µM in the assay with MCF7, 41.6 µM in assay [4] and 52.9 µM in assay [5].

On to `O=C1Nc2c(Cl)cccc2/C1=C1/Nc2ccccc2C1=O`, for which the IC50 in [1] was more than 100 µM; with LoVo it was more than 100 µM; in the assay on SK-MEL-28, more than 100 µM; in the assay with A549 it was more than 100 µM; in [2] it was more than 100 µM; in assay [3], 35.3 µM. The results for the IC50 (in the assay on MCF7; in assay [4]; in assay [5]) were more than 100 µM, 15.7 µM and 55.2 µM, respectively.

`O=C1Nc2ccccc2/C1=C1/Cc2ccccc2/C1=N\O`: the IC50 worked out at 33.1 µM in assay [1]; 18.7 µM with LoVo; 33.7 µM with SK-MEL-28; 28.7 µM in the assay with A549; 28 µM in [2]; 27.8 µM in assay [3]. The IC50 is 38.5 µM in the assay on MCF7, 32.6 µM in [4] and 22.9 µM in [5].

Regarding `O=C1Nc2c(Cl)cccc2/C1=C1/Nc2ccccc2/C1=N\O`, the IC50 amounted to 29.7 µM in assay [1]; 10.2 µM in the assay with LoVo; 40.1 µM in the assay with SK-MEL-28; 45.2 µM with A549; 31.5 µM in [2]; 19.6 µM in assay [3]. Moreover, the values for the IC50 (in the assay with MCF7; in assay [4]; in assay [5]) were 27.5 µM, 12.9 µM and 25.3 µM, respectively.

For `O=C1Nc2ccccc2/C1=C1/Nc2ccccc2/C1=N\O`, the IC50 is 24.3 µM in [1]; 8.9 µM in the assay on LoVo; 26.6 µM with SK-MEL-28; 27 µM in the assay on A549; 18 µM in assay [2]; 8.1 µM in assay [3]. In addition, the half-maximal inhibitory concentration (IC50) with MCF7 was 9.2 µM; in [4] it was 5.4 µM; in assay [5], 6 µM.

In the case of `O=C1NC(=O)/C(=C2/C(=O)Nc3ccccc32)S1`, the IC50 in assay [1] was 67.5 µM; in the assay with LoVo it was 5.2 µM; with SK-MEL-28, more than 100 µM; with A549 it was 60.7 µM; in assay [2], 86.4 µM; in [3] it was 38 µM. The IC50 was more than 100 µM with MCF7, 2.8 µM in assay [4] and 89.7 µM in [5].

Take `O=C1Nc2c(Br)cccc2/C1=C1/Nc2ccccc2/C1=N\O`: the 50% inhibitory concentration (IC50) was found to be 7.8 µM in [1]; 5.6 µM in the assay with LoVo; 9.8 µM in the assay on SK-MEL-28; 13.9 µM with A549; 6.6 µM in assay [2]; 3.9 µM in [3]. Besides, the IC50 was found to be 4.9 µM in the assay with MCF7, 5.3 µM in [4] and 8.1 µM in assay [5].

As to `O=C1NC(=S)S/C1=C1\C(=O)Nc2ccccc21`, the IC50 in [1] was more than 100 µM; with LoVo, 69.3 µM; in the assay on SK-MEL-28 it was 96.6 µM; with A549, 99 µM; in [2], 85.3 µM; in assay [3] it was 47.2 µM. For the same compound, the IC50 is more than 100 µM in the assay with MCF7, 73.5 µM in assay [4] and 93.3 µM in assay [5].

As to `O=C1Nc2ccccc2/C1=C1/Cc2ccccc2C1=O`, the IC50 in assay [1] was more than 100 µM; in the assay on LoVo, 52.6 µM; in the assay on SK-MEL-28 it was more than 100 µM; in the assay with A549, more than 100 µM; in assay [2] it was more than 100 µM; in assay [3], 25.1 µM. Moreover, the figures for the IC50 (in the assay with MCF7; in assay [4]; in [5]) were 70.2 µM, more than 100 µM and more than 100 µM, respectively.

Turning to `O=C1Nc2c(F)cccc2/C1=C1/Nc2ccccc2/C1=N\O`, the IC50 in [1] was determined as 26 µM; in the assay with LoVo it was 9 µM; in the assay with SK-MEL-28, 44.6 µM; in the assay on A549, 33.3 µM; in assay [2], 19.7 µM; in assay [3] it was 9.2 µM. In addition, the IC50 is 26.2 µM in the assay on MCF7, 7.8 µM in assay [4] and 9.3 µM in [5].
